The test system of series [1] is Salmonella Typhimurium. As to the kind of experiment: Ames test on Salmonella Typhimurium, with or without an S9 mix activated with Arochlor. The class given is cell-based. As to conditions: strains TA 100, TA 98 and TA 1538; with or without an S9 mix (Arochlor activation). The text has this: Compounds of formula (I), in hair-dyeing, are substantially innocuous.
On the technique in general: In the Ames test, an excess of revertant colonies over the control signals mutagenicity.

In series [2] the test system is Salmonella Typhimurium. As to conditions: Selects-Proton Magnetic Resonance, page 1, volume 18, 1981, number 95: 75096 f; cited from earlier work.

Each structure is given as a SMILES string.

These results are taken from patent publication US4702863A, “Indoaniline and indophenol compounds, a process for their preparation, dyeing compositions containing them and a hair-dyeing process” (L'Oreal, priority 1983, dated 1987).

In the case of `COC1=CC(=Nc2ccc(N)cc2)C(N)=CC1=O` [[(4'-amino)phenyl]-2-amino-5-methoxy-1,4-benzoquinoneimine], the “mutagenicity in the Ames test” value in the series on Salmonella Typhimurium [1] is recorded as “highly mutagenic”.

Take `COC1=CC(=Nc2ccc(N)c(C)c2)C(N)=CC1=O` [[(4'-amino-3'-methyl)phenyl]-2-amino-5-methoxy-1,4-benzoquinoneimine]: in the series on Salmonella Typhimurium [1], the “mutagenicity in the Ames test” value is “highly mutagenic”. Further, the “mutagenic action disclosed in Chemical Abstracts” value in the series on Salmonella Typhimurium [2] is reported as “highly mutagenic”.
